Cc1nc2n(c(=O)c1CCN1CCC(c3noc4cc(F)ccc34)CC1)CCCC2
solubility (mole fraction)
Conditions | 278.15 K | 283.15 K | 288.15 K | 293.15 K | 298.15 K | 303.15 K | 308.15 K | 313.15 K
in acetone | 0.000769 | 0.00111 | 0.00135 | 0.00166 | 0.00208 | 0.00251 | 0.00309 | 0.0039
in ethanol | 0.000876 | 0.00107 | 0.00133 | 0.00156 | 0.00209 | 0.00259 | 0.00333 | 0.00427
in ethyl acetate | 0.00113 | 0.00144 | 0.00165 | 0.00207 | 0.00248 | 0.00297 | 0.00373 | 0.00464
in isobutyl acetate | 0.000791 | 0.00106 | 0.00129 | 0.0015 | 0.00183 | 0.00226 | 0.00266 | 0.0033
in isopropanol | 0.00047 | 0.0006 | 0.000714 | 0.000853 | 0.00111 | 0.00134 | 0.00193 | 0.00271
in isopropyl acetate | 0.000742 | 0.000884 | 0.00102 | 0.00125 | 0.0015 | 0.00186 | 0.00225 | 0.0027
in methanol | 0.00204 | 0.00226 | 0.00273 | 0.00331 | 0.00407 | 0.00506 | 0.00623 | 0.00787
in methyl acetate | 0.00124 | 0.00153 | 0.0018 | 0.00219 | 0.00264 | 0.00329 | 0.00397 | 0.00489
in n-butanol | 0.00144 | 0.00183 | 0.00225 | 0.00291 | 0.00368 | 0.00479 | 0.00621 | 0.00792
in n-butyl acetate | 0.00112 | 0.00129 | 0.00159 | 0.00189 | 0.00241 | 0.00282 | 0.00341 | 0.00386
in n-propanol | 0.00111 | 0.00149 | 0.00199 | 0.00248 | 0.0031 | 0.00409 | 0.00532 | 0.00683
in n-propyl acetate | 0.00116 | 0.00147 | 0.00166 | 0.00202 | 0.00242 | 0.00288 | 0.00357 | 0.00424
in sec-butanol | 0.00187 | 0.00244 | 0.00286 | 0.00361 | 0.00464 | 0.00604 | 0.00769 | 0.00987

From BigSolDB 2.1
